According to ChEMBL document CHEMBL1201862, “PubChem BioAssay data set” (2004):
Calls of active or inactive are those of the source.

Legend:
[1] = viability loss in CEM21 cells – cell-based, CellTiter-Glo luminescence, cherry-picked, cytotoxicity control for viral fusion inhibitor project, dose response (AID 652042); format: functional;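 also: potency for signal decrease meaning cytotoxicity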
[2] = HIV-1 AD8 envelope cell-cell fusion blockers – cherry-pick, dose response (AID 652062); format: functional, cell-based;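 also: luciferase signal from cell-cell fusion driven by HIV-1 clade B AD8 Env; potency is for inhibitors of fusion seen as a drop in luminescence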
[3] = blockers of HIV-1 envelope-mediated cell-cell fusion – cherry-pick, dose response (AID 652057); format: functional, cell-based
[4] = cells; format: functional, cell-based
[5] = molecular target: T1, Nuclear receptor subfamily 0 group B member 1 (Homo sapiens, UniProt P51843); format: functional, cell-based;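 also: HEK293T cells transfected with SF-1 and DAX-1 plus StAR promoter luciferase reporter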
T1 sequence (P51843 whole entry): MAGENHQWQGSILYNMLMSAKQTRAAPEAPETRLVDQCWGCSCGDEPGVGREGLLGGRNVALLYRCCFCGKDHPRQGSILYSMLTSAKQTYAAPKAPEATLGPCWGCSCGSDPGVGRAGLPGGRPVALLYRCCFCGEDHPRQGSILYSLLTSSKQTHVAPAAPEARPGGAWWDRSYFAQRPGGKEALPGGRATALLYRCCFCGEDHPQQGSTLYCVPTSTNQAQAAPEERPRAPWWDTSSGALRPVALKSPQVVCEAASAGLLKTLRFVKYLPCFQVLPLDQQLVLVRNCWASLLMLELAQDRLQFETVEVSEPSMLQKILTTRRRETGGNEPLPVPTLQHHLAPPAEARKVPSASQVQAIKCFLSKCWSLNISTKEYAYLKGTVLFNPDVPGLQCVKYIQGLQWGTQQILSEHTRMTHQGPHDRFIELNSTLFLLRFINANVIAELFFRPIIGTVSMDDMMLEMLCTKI

[6] = molecular target: T2, DNA repair protein RAD52 homolog (Homo sapiens, UniProt P43351); format: functional, biochemical
T2 sequence (P43351 whole entry): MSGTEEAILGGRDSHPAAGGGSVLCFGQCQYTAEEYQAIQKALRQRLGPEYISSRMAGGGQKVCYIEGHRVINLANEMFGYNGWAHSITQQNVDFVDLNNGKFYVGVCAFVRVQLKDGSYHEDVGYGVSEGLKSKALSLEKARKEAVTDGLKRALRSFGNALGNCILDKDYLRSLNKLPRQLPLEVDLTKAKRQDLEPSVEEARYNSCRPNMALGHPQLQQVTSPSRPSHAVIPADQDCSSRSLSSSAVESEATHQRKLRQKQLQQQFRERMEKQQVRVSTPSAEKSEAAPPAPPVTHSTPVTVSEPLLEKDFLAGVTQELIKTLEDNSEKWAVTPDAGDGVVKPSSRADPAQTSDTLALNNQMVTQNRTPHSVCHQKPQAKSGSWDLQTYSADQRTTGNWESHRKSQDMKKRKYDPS

[7] = off-target signal loss in HeLa-CEM21 co-culture – HeLa F-luc CTL cells, cherry-picked, counter-screen for HIV-1 Env fusion inhibitor project, dose response (AID 652040); format: functional, cell-based;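 also: potency for signal decrease marking cytotoxic or nonspecific inhibition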
[8] = blockers of HIV-1 ZM109 envelope-driven cell-cell fusion – HeLa effector, CEM target cells, luciferase, cherry-pick, dose response (AID 652058); format: functional, cell-based;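 also: luciferase signal from HIV-1 Env mediated cell-cell fusion of effector and target cells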
[9] = blockers of bursicon-stimulated LGR2 cAMP reporter – cell-based, HEK293, CRE-luciferase reporter, cherry pick, set 2, dose response (AID 743343); format: functional;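 also: transfected cells were stimulated with diluted bursicon conditioned medium after compound addition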
[10] = A549 cell cytotoxicity, dose response, cytotoxicity control, plate reader, cherry-pick, antagonist series (AID 743412); format: functional, cell-based
[11] = viability loss in HEK293 cells – cell-based, plate reader, cherry-picked samples, cytotoxicity control, dose response (AID 743446); format: functional
[12] = toxicity toward HepG2 liver cells – cell-based, plate reader, cherry-pick, antagonist series, cytotoxicity control, dose response (AID 743416); format: functional
[13] = blockade of melanocortin 4 receptor signaling – cell-based, plate reader, cherry pick, counter-screen for LGR2 antagonist project, dose response (AID 743444); format: functional;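 also: transfected HEK 293 cells stimulated with alpha-MSH peptide; potency of inhibitors of the alpha-MSH evoked signal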

Cn1c(=O)c2c(nc(NCCc3ccccc3)n2Cc2ccccc2)n(C)c1=O
AC50 [1]: 49.1 µM (active) | AC50 [2]: 12 µM (active) | AC50 [3]: 30.8 µM (active)

COc1ccc(/C=C2\Sc3ccc(C(=O)NCCCN4CCCC4)cc3N(C)C2=O)cc1OC
IC50 [4]: > 67.5 µM (inactive) | IC50 [5]: > 67.5 µM (inactive) | AC50 [6]: 3.69 µM (active)

C/C=C1\COC(C(=O)NCc2cccc(OC)c2OC)(C(F)(F)F)C=C1C=C1CCCCC1 (stereo unspecified)
AC50 [7]: 50.1 µM (active) | AC50 [1]: 22.3 µM (active) | AC50 [8]: 9 µM (active) | AC50 [2]: 35.6 µM (active) | AC50 [3]: 19.8 µM (active)

COc1ccc(-n2nnnc2C(c2cccc(OC)c2OC)N2CCC(n3c(O)nc4ccccc43)CC2)cc1 (stereo unspecified)
AC50 [9]: 17.6 µM (active) | AC50 [10]: 25.6 µM (active) | AC50 [11]: 17.6 µM (active) | AC50 [12]: > 52 µM (inactive) | AC50 [13]: 21.5 µM (active)
